Test results reported in patent publication US8124580B2, “Apolipoprotein A1 mimetics and uses thereof” (Trustees of Tufts College, priority 2004, dated 2012).
“Also recorded” adds a separate entry of the source. [ ]: non-standard residue; d: D form.

Experiments:
[1] = Association with DMPC phospholipid, gel filtration chromatography; type: binding; conditions: FIGS. 2A-D
From the text: To assess the ability of purified Rev-D4F to interact with phospholipids, the purified peptidomimetic was mixed with 1,2-dimyristoyl-sn-glycero-3-phosphocholine (DMPC), which is a component of membrane lipid bi-layer with which cholesterol is associated, and fractionated by gel filtration chromatography.

apoE-null mice = assay: Atherosclerosis in apoE-null mice, oral in drinking water; type: in vivo; conditions: aortic root, 1.6 mg/day orally, 6 weeks; for decrease in lesion area as compared to water control: p<0.02
Experimental: In this study, the comparative effect of Rev-D4F, D-4F, and L-4F mimetic peptides on atherosclerosis in apoE-null mice was measured. Four groups of apoE-null mice (4 weeks old, n=15) were fed a chow diet, and administered water (control), Rev-D4F, D-4F, or L-4F mimetic peptides (1.6 mg/day, n=12/group) orally in drinking water for 6 weeks. Quantitative morphometry of aortic root cross sections stained with oil-red O was performed with NIH software.

[2] = tested on: monocyte chemotactic protein-1 (MCP-1) mRNA; assay: MCP-1 mRNA expression in endothelial cells; type: cell-based
From the text: This study analyzed the effects of Rev-D4F, D-4F, and L-4F mimetic peptides to reduce the levels of an […] marker, monocyte chemotactic protein-1 (MCP-1). Based upon levels of MCP-1 mRNA, all three peptidomimetics reduced the amount of MCP-1.

[3] = target: T1, Scavenger receptor class B type I (SR-BI) (Homo sapiens, UniProt Q8WTV0); assay: SR-BI-dependent cholesterol efflux from SR-BI-transfected cells; type: cell-based
T1 construct: expressed in transfected cells
T1 sequence (Q8WTV0 1-509 isoform Q8WTV0-2): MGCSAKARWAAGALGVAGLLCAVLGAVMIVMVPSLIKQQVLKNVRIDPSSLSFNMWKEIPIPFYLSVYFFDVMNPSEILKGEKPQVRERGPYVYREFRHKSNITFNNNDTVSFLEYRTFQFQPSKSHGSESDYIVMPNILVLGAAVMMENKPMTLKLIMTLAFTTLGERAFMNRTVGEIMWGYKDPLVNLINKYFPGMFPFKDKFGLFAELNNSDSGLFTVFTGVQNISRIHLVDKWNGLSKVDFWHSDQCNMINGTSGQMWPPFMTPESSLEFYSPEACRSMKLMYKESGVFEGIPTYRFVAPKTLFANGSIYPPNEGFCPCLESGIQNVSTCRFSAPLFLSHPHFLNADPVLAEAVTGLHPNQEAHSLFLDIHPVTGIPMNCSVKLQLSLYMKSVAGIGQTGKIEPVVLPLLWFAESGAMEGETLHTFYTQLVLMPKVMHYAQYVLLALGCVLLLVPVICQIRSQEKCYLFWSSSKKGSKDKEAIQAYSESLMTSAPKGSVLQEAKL
Experimental: (§1) The effect of Rev-D4F on the cholesterol efflux in a […] was examined. Scavenger receptor class B type I (“SR-BI”) is a receptor for HDL normally expressed on the surface of the liver cells. Tritiated cholesterol was added to cells transfected with SR-BI, with wild type Apo A-I, L4F peptide, D4F peptide, or Rev-D4F peptidomimetic, and the percentage of cholesterol efflux was determined.

LDL = conditions: cited from earlier work; for LDL oxidation: previously shown
[4] = target: T2, ATP-binding cassette protein A1 (ABCA1) (Homo sapiens, UniProt O95477); assay: ABCA1-dependent cholesterol efflux from ABCA1-transfected cells; type: cell-based
T2 construct: expressed in transfected cells
Experimental: as §1
The effect of Rev-D4F on the cholesterol efflux in a manner dependent on ATP-binding cassette protein A1 (“ABCA1”) was also examined using the same methodology as for SR-BI, except that ABCA1 was transfected.

[5] = tested on: LDL-induced monocyte chemotactic activity; conditions: previously shown; cited from earlier work
[6] = tested on: lipid peroxidation caused by copper(II) sulfate; assay: Lipid peroxidation caused by copper(II) sulfate (TBARS); type: biochemical; conditions: copper(II) sulfate as oxidant, FIG. 6
From the text: (§2) The present study measured the ability of Rev-D4F, D-4F, and L-4F mimetic peptides to inhibit lipid peroxidation caused by human aortic endothelial cells and copper(II) sulfate, based upon inhibiting an increase in concentrations of thiobarbituric acid-reactive substances (TBARS).

[7] = tested on: human aortic endothelial cells; assay: Lipid peroxidation caused by human aortic endothelial cells (TBARS); type: cell-based; conditions: FIG. 5; for lipid peroxidation (TBARS) caused by endothelial cells: human aortic endothelial cells as oxidant
From the text: as §2

LDL receptor-null mice = conditions: oral administration; cited from earlier work
[8] = in vivo; cited from earlier work

T2 sequence (O95477 whole entry, species assumed): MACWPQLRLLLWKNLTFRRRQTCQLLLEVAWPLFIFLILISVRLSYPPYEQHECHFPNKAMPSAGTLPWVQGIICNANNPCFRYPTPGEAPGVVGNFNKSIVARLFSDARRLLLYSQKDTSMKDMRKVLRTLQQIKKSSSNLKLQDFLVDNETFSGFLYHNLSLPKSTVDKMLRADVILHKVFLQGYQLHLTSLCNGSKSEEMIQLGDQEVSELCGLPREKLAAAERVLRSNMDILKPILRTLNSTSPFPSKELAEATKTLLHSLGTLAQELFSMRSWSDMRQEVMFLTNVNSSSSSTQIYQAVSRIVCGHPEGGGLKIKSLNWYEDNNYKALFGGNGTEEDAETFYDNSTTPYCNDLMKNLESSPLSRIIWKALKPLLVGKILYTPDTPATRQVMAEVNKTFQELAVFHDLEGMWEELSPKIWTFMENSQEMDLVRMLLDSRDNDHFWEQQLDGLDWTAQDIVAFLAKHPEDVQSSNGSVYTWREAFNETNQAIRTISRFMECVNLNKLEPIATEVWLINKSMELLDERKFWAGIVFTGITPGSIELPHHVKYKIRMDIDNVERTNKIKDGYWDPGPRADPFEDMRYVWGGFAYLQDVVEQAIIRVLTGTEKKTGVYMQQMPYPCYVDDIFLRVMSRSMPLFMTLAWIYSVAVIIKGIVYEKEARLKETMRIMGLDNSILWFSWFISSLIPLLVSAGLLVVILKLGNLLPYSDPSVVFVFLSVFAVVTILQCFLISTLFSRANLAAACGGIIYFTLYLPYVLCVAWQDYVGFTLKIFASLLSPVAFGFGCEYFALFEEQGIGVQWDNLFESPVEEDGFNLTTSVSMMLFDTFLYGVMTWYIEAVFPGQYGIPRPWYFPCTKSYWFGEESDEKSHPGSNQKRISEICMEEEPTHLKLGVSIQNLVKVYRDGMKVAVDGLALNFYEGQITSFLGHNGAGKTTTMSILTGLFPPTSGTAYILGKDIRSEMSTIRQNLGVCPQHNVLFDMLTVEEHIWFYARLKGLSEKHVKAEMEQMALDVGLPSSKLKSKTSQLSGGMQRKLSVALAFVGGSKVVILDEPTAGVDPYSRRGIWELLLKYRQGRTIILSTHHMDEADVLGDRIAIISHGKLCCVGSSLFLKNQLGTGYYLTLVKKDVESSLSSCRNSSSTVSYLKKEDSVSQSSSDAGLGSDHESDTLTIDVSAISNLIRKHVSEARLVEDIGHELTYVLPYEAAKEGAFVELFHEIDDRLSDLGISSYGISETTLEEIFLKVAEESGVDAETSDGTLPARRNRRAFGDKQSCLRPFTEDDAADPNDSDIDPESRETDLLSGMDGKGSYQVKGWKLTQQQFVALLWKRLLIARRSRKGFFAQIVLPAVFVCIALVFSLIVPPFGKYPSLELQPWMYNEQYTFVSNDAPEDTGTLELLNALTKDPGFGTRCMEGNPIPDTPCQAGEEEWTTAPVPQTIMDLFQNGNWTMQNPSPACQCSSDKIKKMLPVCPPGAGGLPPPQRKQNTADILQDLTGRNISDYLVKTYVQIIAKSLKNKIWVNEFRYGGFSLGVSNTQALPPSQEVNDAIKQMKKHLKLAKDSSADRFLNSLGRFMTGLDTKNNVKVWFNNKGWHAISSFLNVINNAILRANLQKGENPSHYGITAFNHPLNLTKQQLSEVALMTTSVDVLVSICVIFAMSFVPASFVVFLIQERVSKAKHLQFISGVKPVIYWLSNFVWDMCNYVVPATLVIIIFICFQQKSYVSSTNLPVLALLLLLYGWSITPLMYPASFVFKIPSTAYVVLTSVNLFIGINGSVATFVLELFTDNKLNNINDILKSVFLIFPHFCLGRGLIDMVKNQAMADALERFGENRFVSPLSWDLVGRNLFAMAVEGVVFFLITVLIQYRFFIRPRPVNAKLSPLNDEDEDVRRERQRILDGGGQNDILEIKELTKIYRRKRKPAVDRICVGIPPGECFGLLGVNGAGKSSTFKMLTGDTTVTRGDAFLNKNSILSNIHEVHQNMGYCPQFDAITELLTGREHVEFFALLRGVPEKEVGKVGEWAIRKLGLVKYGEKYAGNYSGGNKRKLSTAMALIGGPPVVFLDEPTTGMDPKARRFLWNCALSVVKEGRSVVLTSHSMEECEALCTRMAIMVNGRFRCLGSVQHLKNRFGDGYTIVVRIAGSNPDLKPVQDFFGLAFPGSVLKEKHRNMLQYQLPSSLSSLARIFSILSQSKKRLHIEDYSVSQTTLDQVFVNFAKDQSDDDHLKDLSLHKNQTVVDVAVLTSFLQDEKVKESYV

Substance | spontaneous association with DMPC (co-elution with phospholipid) [1] | effect on atherosclerotic lesions (apoE-null mice) | MCP-1 mRNA level ([2]; FIG. 7) | efficiency in promoting SR-BI-dependent cholesterol efflux compared to Apo A-I ([3]; per mole basis) | efficiency in promoting SR-BI-dependent cholesterol efflux compared to Apo A-I ([3]; per weight basis) | LDL and phospholipid oxidation (LDL; mechanisms independent of HDL-mediated processes) | LDL oxidation (LDL) | efficiency in promoting ABCA1-dependent cholesterol efflux compared to Apo A-I ([4]; per mole basis) | efficiency in promoting ABCA1-dependent cholesterol efflux compared to Apo A-I ([4]; per weight basis) | LDL-induced monocyte chemotactic activity [5] | lipid peroxidation (TBARS) caused by copper sulfate [6] | lipid peroxidation (TBARS) caused by endothelial cells [7] | decrease in lesion area as compared to water control (apoE-null mice) | reduction of atherosclerotic lesions (LDL receptor-null mice) | stability upon oral administration [8] | MCP-1 mRNA level ([2]; FIG. 7, listed as Rev D-4-F) | inhibition in lipid peroxidation compared with D-4F [6] | lipid peroxidation (TBARS) caused by copper sulfate ([6]; listed as Rev D-4-F) | inhibition in lipid peroxidation compared with D-4F ([7]; endothelial cells as oxidant) | lipid peroxidation (TBARS) caused by endothelial cells ([7]; listed as Rev D-4-F)
Apo A-I: the major HDL apoprotein; intact/wild type protein used as comparator | only certain portions |  |  |  |  |  |  |  |  |  |  |  |  |  |  |  |  |  |  | 
Ac-D-W-F-K-A-F-Y-D-K-V-A-E-K-F-K-E-A-F-NH2 [L-4F] (Ac-DWFKAFYDKVAEKFKEAF-NH2) | associated spontaneously | no effect | reduced; also recorded: inhibit | less efficient | more efficient | inhibits | block | less efficient | more efficient | block | significantly decreased; also recorded: inhibit | significantly decreased; also recorded: inhibit |  |  |  |  |  |  |  | 
Ac-D-W-F-K-A-F-Y-D-K-V-A-E-K-F-K-E-A-F-NH2 [D-4F] (Ac-[dD][dW][dF][dK][dA][dF][dY][dD][dK][dV][dA][dE][dK][dF][dK][dE][dA][dF]-NH2) | associated spontaneously |  | reduced; also recorded: inhibit | less efficient | more efficient |  | block | less efficient | more efficient | block | significantly decreased; also recorded: inhibit | significantly decreased; also recorded: inhibit | 33% | ~80% | stable |  |  |  |  | 
Ac-F-A-E-K-F-K-E-A-V-K-D-Y-F-A-K-F-W-D-NH2 (Ac-[dF][dA][dE][dK][dF][dK][dE][dA][dV][dK][dD][dY][dF][dA][dK][dF][dW][dD]-NH2; SMILES CC(=O)N[C@H](Cc1ccccc1)C(=O)N[C@H](C)C(=O)N[C@H](CCC(=O)O)C(=O)N[C@H](CCCCN)C(=O)N[C@H](Cc1ccccc1)C(=O)N[C@H](CCCCN)C(=O)N[C@H](CCC(=O)O)C(=O)N[C@H](C)C(=O)N[C@@H](C(=O)N[C@H](CCCCN)C(=O)N[C@H](CC(=O)O)C(=O)N[C@H](Cc1ccc(O)cc1)C(=O)N[C@H](Cc1ccccc1)C(=O)N[C@H](C)C(=O)N[C@H](CCCCN)C(=O)N[C@H](Cc1ccccc1)C(=O)N[C@H](Cc1c[nH]c2ccccc12)C(=O)N[C@H](CC(=O)O)C(N)=O)C(C)C) [Rev-D4F] | associated spontaneously |  | reduced | less efficient | more efficient |  |  | less efficient | more efficient |  | significantly decreased | significantly decreased | 46% |  |  | inhibit | significantly greater | inhibit | significantly greater | inhibit
